Here are results for 48 compounds from article PMC7904875, “Identification and Functional Analysis of SlitOBP11 From Spodoptera litura” (Frontiers in Physiology, 2021).

Bounds are passed on as bounds.

By IC50 is commonly meant the point on the concentration scale where inhibition reaches its midpoint. Broadly, the Ki is a measure of affinity in units of concentration, obtained from inhibition or displacement.

The target in the first assay is T1, SlitOBP11 (Spodoptera litura, UniProt A0A9J7E9A4).
T1 construct: gene LOC111356549; mature protein, predicted 23-residue signal peptide removed; ORF 465 bp, given as 155 aa; pET32a(+) (BamHI/HindIII), E. coli BL21(DE3); Ni-NTA purified, tag cleaved with enterokinase
T1 sequence (A0A9J7E9A4 24-154): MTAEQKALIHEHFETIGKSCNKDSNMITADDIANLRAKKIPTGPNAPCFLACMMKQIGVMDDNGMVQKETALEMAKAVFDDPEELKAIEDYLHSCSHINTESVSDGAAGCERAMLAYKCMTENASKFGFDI
Briefly: fluorescence titration, Scatchard. It counts as binding. Conditions: read-out: dissociation constant.
For `c1ccc(Nc2cccc3ccccc23)cc1` [1-NPN, 1-N-Phenyl-naphthylamine], the Kd amounted to 8.09 ± 0.26 µM.

Another assay concerns the target T1, SlitOBP11. Nature of the assay: competitive displacement of 1-NPN fluorescence. It counts as binding.
Settings: not given
For `CCCCCCC(=O)O` [Heptanoic acid], the IC50 is > 50 µM. On the same count and under the same terms, to `CCCC/C=C\CCCCCCCCOC(C)=O` [(Z)-9-tetradecenyl acetate, (Z)-9-Tetradecenyl acetate] belongs 11.2 ± 0.55 µM; to `CCCC(=O)O` [Butyric acid], > 50 µM; to `CCCC(=O)CC` [3-hexanone], > 50 µM. Regarding `CCCCCCCCCCCCCCCCCC` [N-octadecane], the IC50 was > 50 µM. Same read-out and setting: to `OCc1ccccc1` [Benzyl alcohol] belongs > 50 µM. Still for that read-out and setting: the result for `CCCCC(=O)O` [Pentanoic acid] reads > 50 µM; that for `CCC(=O)O` [Propanoic acid], > 50 µM.

For the compound `CC(=O)O` [Acetic acid], the IC50 is > 50 µM. Same read-out and setting: to `CCC(C)CC(=O)O` (stereo not drawn) [3-methylpentanoic acid] belongs > 50 µM; to `CC1=CCCC(C)(C)C1/C=C/C(C)O` (stereo not drawn) [Alpha- ionol], > 50 µM. Same read-out and setting: to `CC1=CCC(C(C)C)C=C1` (stereo not drawn) [Alpha-phellandrene] belongs > 50 µM. On the same count and under the same terms, to `CC(=O)OCCc1ccccc1` [Phenethyl acetate] belongs 48.6 ± 0.52 µM; to `CCCCC(C)=O` [2-hexanone], > 50 µM. Regarding `CC(=O)OCc1ccccc1` [Benzyl acetate], the IC50 was > 50 µM.

As to `OCCc1ccccc1` [Phenethyl alcohol], the IC50 is > 50 µM. On the same count and under the same terms, the result for `C=C(C)[C@H]1CC=C(C)C(=O)C1` [(+)-Carvone] reads > 50 µM; that for `CC12CCC(CC1)C(C)(C)O2` [Eucalyptol], > 50 µM. `CC(C)C(=O)O` [Isobutyric acid]: the IC50 was > 50 µM. Still for that read-out and setting: to `CCCCCCCCCCCCCC` [Tetradecane] belongs > 50 µM; to `COC(=O)c1ccccc1O` [Methyl salicylate], > 50 µM; to `CC/C=C/C=C\CCCCCCCCOC(C)=O` [(Z, E)-9,11-tetradecadienyl acetate, (Z,E)-9,11-Tetradecadienyl acetate], 15.6 ± 1.41 µM. Same read-out and setting: the result for `CCc1ccccc1` [Ethylbenzene] reads > 50 µM; that for `C=C1CC/C=C(\C)CC[C@@H]2[C@@H]1CC2(C)C` [Beta-caryophyllene], > 50 µM; that for `O=Cc1ccccc1` [Benzaldehyde], > 50 µM.

Take `C=CC(C)(O)CC/C=C(\C)CCC=C(C)C` (stereo not drawn) [Trans-nerolidol]: the IC50 was > 50 µM.

As for `CCCCCCCCCCCCC` [Tridecane], the IC50 was > 50 µM. In the case of `CC/C=C\CCOC(C)=O` [Cis-3-hexenyl acetate], the IC50 is > 50 µM. Consider `c1ccc2[nH]ccc2c1` [Indole], for which the IC50 was > 50 µM.

In turn, `C/C=C/C/C=C\CCCCCCCCOC(C)=O` [(Z, E)-9,12-tetradecadienyl acetate, (Z,E)-9,12-Tetradecadienyl acetate] registered an IC50 of 16.2 ± 0.32 µM.

For the compound `CC(=O)CC/C=C(\C)CCC=C(C)C` [Geranylacetone], the IC50 was > 50 µM.

Regarding `C=CC(=C)CCC=C(C)C` [Myrcene], the IC50 was > 50 µM. On the same count and under the same terms, the result for `CCCCCCCCCC=O` [Decanal] reads > 50 µM. On the same count and under the same terms, to `CCCCCCCC=O` [Octyl aldehyde] belongs > 50 µM; to `C=C(C)[C@H]1CC=C(C)CC1` [(R)-(+)-limonene], > 50 µM; to `CCCCCC(=O)O` [Hexanoic acid], > 50 µM.

For the compound `CCCCCCCCCCCC` [Dodecane], the IC50 is > 50 µM.

With `CC(=O)/C=C/C1=C(C)CCCC1(C)C` [Beta-ionone], the IC50 is > 50 µM. The same measure, in the same setting: to `CC(=O)OC/C=C(\C)CCC=C(C)C` [Geranyl acetate] belongs > 50 µM; to `CC(C)CC(=O)O` [3-methylbutyric acid], > 50 µM.

`CC(C)CCC(=O)O` [4-methylpentanoic acid]: the IC50 was > 50 µM.

The assay is the same for the next values; noted with them: 2 μM protein, 2 μM 1-NPN, 30 mM Tris-HCl pH 7.4, 4°C; read-out: IC50.
Take Farnesene: the IC50 is > 50 µM.

The assay is the same for the next values; noted with them: read-out: IC50.
Regarding `C=CC(C)(O)CCC=C(C)C` (racemic) [(±)-Linalool], the IC50 is > 50 µM. On the same count and under the same terms, the result for `COC(=O)c1ccccc1N` [Methyl anthranilate] reads > 50 µM; that for `CC/C=C/CCCCCCCCCCOC(C)=O` [(E)-11-tetradecenly acetate, (E)-11-Tetradecenyl acetate], 15.2 ± 0.54 µM.

Staying with this assay, now noted: read-out: IC50 (μmol L^-1); 2 μM protein, 2 μM 1-NPN, 30 mM Tris-HCl pH 7.4, 4°C.
With `C/C=C/C(=O)O` [Crotonic acid], the IC50 was > 50 µM.

Another assay has as its target T1, SlitOBP11. Briefly: competitive displacement of 1-NPN fluorescence. It counts as binding.
Settings: not given
The source holds these as a separate data set. From the text: competitive displacement of 1-NPN fluorescence on SlitOBP11
`O=CCc1ccccc1` [Phenylacetaldehyde] returned an IC50 of 43.4 ± 10.1 µM.

Staying with this assay, now noted: read-out: Ki (μmol L^-1)^∗.
As to `CCCC/C=C\CCCCCCCCOC(C)=O` [(Z)-9-tetradecenyl acetate, (Z)-9-Tetradecenyl acetate], the Ki was determined as 9.97 ± 0.492 µM. On the same count and under the same terms, to `CC(=O)OCCc1ccccc1` [Phenethyl acetate] belongs 43.1 ± 0.488 µM; to `O=CCc1ccccc1` [Phenylacetaldehyde], 35.8 ± 9.76 µM; to `CC/C=C/C=C\CCCCCCCCOC(C)=O` [(Z, E)-9,11-tetradecadienyl acetate, (Z,E)-9,11-Tetradecadienyl acetate], 13.9 ± 1.44 µM. Consider `CC/C=C/CCCCCCCCCCOC(C)=O` [(E)-11-tetradecenly acetate, (E)-11-Tetradecenyl acetate], for which the Ki turned out to be 13.5 ± 0.479 µM. As to `C/C=C/C/C=C\CCCCCCCCOC(C)=O` [(Z, E)-9,12-tetradecadienyl acetate, (Z,E)-9,12-Tetradecadienyl acetate], the Ki stood at 14.4 ± 0.317 µM.
